The values below come from patent US6723753B2, “Substituted n-benzyl-n-phenyl aminoalcohol compounds useful for inhibiting cholesteryl ester transfer protein activity” (Pharmacia Corporation, priority 2002, dated 2004).

For this assay, the target named is T1, CETP (Homo sapiens, UniProt P11597).
T1 sequence (P11597 18-493): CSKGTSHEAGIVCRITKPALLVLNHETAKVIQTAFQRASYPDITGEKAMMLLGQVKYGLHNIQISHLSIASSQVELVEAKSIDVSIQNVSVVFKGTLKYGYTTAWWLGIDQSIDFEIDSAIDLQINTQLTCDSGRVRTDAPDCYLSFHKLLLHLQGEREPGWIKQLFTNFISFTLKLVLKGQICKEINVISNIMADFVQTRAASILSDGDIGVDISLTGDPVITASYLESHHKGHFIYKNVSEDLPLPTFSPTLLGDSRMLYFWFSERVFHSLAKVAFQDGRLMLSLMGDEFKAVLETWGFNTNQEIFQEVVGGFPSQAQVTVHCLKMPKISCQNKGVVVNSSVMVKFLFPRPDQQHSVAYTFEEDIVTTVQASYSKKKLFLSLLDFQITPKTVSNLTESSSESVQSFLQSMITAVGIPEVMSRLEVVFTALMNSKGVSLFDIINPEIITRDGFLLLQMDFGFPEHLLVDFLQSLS
Description: Assay of CETP Inhibition using Purified Components (Reconstituted Buffer Assay). It is filed as biochemical. Further details: made in house; host or cells: CHO cells (serum-free conditioned medium). The following applies: Inhibition of CETP activity in reconstituted buffer assay; transfer of [3H]CE from HDL to LDL; read-out: IC50. The method in brief:
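Purified human recombinant CETP from transfected CHO cells was incubated with [^3H]CE-labeled HDL donor and LDL acceptor in Tris pH 7.4/NaCl/EDTA/1% BSA buffer for 2 h at 37 °C. LDL was then precipitated with dextran sulfate/MgCl2, filtered, and counted by liquid scintillation to give IC50 for CE transfer.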
Take `O=C(NC1CCCC1)c1cccc(N(Cc2cccc(OC(F)(F)C(F)F)c2)CC(O)C(F)(F)F)c1` (stereo not drawn) [Example 461]: the IC50 was determined as 13 µM.
Turning to `CC(C)(C)CNC(=O)c1cccc(N(Cc2cccc(OC(F)(F)C(F)F)c2)CC(O)C(F)(F)F)c1` (stereo not drawn) [Example 462], the IC50 was found to be 12 µM.
For `O=C(NCC(F)(F)F)c1cccc(N(Cc2cccc(OC(F)(F)C(F)F)c2)CC(O)C(F)(F)F)c1` (stereo not drawn) [Example 463], the IC50 was determined as 13 µM.
For the molecule `O=C(NCC(F)(F)C(F)(F)C(F)(F)F)c1cccc(N(Cc2cccc(OC(F)(F)C(F)F)c2)CC(O)C(F)(F)F)c1` (stereo not drawn) [Example 464], the IC50 came out at 3 µM.
For `O=C(NCc1ccccc1)c1cccc(N(Cc2cccc(OC(F)(F)C(F)F)c2)CC(O)C(F)(F)F)c1` (stereo not drawn) [Example 465], the IC50 was greater than 50 µM.
In the case of `O=C(NCc1cccc(OC(F)(F)F)c1)c1cccc(N(Cc2cccc(OC(F)(F)C(F)F)c2)CC(O)C(F)(F)F)c1` (stereo not drawn) [Example 466], the 50% inhibitory concentration (IC50) was 12 µM.
Turning to `O=C(NCc1ccc(F)cc1)c1cccc(N(Cc2cccc(OC(F)(F)C(F)F)c2)CC(O)C(F)(F)F)c1` (stereo not drawn) [Example 467], the IC50 was greater than 50 µM.
For `CN(C(=O)c1cccc(N(Cc2cccc(OC(F)(F)C(F)F)c2)CC(O)C(F)(F)F)c1)c1ccccc1` (stereo not drawn) [Example 468], the IC50 is 35 µM.
Take `CN(Cc1ccccc1)C(=O)c1cccc(N(Cc2cccc(OC(F)(F)C(F)F)c2)CC(O)C(F)(F)F)c1` (stereo not drawn) [Example 469]: the IC50 is greater than 50 µM.
For `CN1CCN(C(=O)c2cccc(N(Cc3cccc(OC(F)(F)C(F)F)c3)CC(O)C(F)(F)F)c2)CC1` (stereo not drawn) [Example 470], the IC50 is greater than 50 µM.
Turning to `O=C(c1cccc(N(Cc2cccc(OC(F)(F)C(F)F)c2)CC(O)C(F)(F)F)c1)N1CCCC1` (stereo not drawn) [Example 472], the IC50 stood at 11 µM.
The value for `OC(CN(Cc1cccc(OC(F)(F)C(F)F)c1)c1cccc(Sc2ccncc2)c1)C(F)(F)F` (stereo not drawn) [Example 474] was 6 µM; that for `OC(CN(Cc1cccc(OC(F)(F)C(F)F)c1)c1cccc(SC2CCNCC2)c1)C(F)(F)F` (stereo not drawn) [Example 476] was greater than 50 µM.
Turning to `OC(CN(Cc1cccc(OC(F)(F)C(F)F)c1)c1cccc(SCc2ccccn2)c1)C(F)(F)F` (stereo not drawn) [Example 477], the concentration for half-maximal inhibition (IC50) worked out at 11 µM.
As for `CC(=O)c1ccc(Sc2cccc(N(Cc3cccc(OC(F)(F)C(F)F)c3)CC(O)C(F)(F)F)c2)cc1` (stereo not drawn) [Example 478], the figure is 1.8 µM; as for `CS(=O)(=O)c1ccc(Sc2cccc(N(Cc3cccc(OC(F)(F)C(F)F)c3)CC(O)C(F)(F)F)c2)cc1` (stereo not drawn) [Example 479], greater than 50 µM.
`OC(CN(Cc1cccc(OC(F)(F)C(F)F)c1)c1cccc(SCc2cc(Cl)cs2)c1)C(F)(F)F` (stereo not drawn) [Example 480]: the IC50 amounted to 1.9 µM.
On to `CC(C)S(=O)(=O)c1cccc(N(Cc2cccc(OC(F)(F)C(F)F)c2)CC(O)C(F)(F)F)c1` (stereo not drawn) [Example 482, 3-[[3-[(1-methylethyl)sulfonyl]phenyl][[3-(1,1,2,2-tetrafluoroethoxy)-phenyl]methyl]amino]-1,1,1-trifluoro-2-propanol], for which the IC50 was 4.8 µM.
With `O=[N+]([O-])c1ccc(S(=O)(=O)c2cccc(N(Cc3cccc(OC(F)(F)C(F)F)c3)CC(O)C(F)(F)F)c2)cc1` (stereo not drawn) [Example 483], the IC50 was determined as 2.2 µM.
On to `O=S(=O)(c1cccc(N(Cc2cccc(OC(F)(F)C(F)F)c2)CC(O)C(F)(F)F)c1)C1CCNCC1` (stereo not drawn) [Example 484], for which the IC50 was greater than 50 µM.
On to `CC(=O)c1ccc(S(=O)(=O)c2cccc(N(Cc3cccc(OC(F)(F)C(F)F)c3)CC(O)C(F)(F)F)c2)cc1` (stereo not drawn) [Example 486], for which the IC50 amounted to 10 µM.
Turning to `CS(=O)(=O)c1ccc(S(=O)(=O)c2cccc(N(Cc3cccc(OC(F)(F)C(F)F)c3)CC(O)C(F)(F)F)c2)cc1` (stereo not drawn) [Example 487], the IC50 is greater than 50 µM.
As for `COC(=O)COc1cccc(N(Cc2cccc(OC(F)(F)C(F)F)c2)CC(O)C(F)(F)F)c1` (stereo not drawn) [Example 490], the IC50 amounted to 2.2 µM.
`N#CCOc1cccc(N(Cc2cccc(OC(F)(F)C(F)F)c2)CC(O)C(F)(F)F)c1` (stereo not drawn) [Example 491]: the IC50 stood at 4.4 µM.
Consider `CC(C)COc1cccc(N(Cc2cccc(OC(F)(F)C(F)F)c2)CC(O)C(F)(F)F)c1` (stereo not drawn) [Example 492], for which the IC50 turned out to be 1.2 µM.
As to `CCC(=O)COc1cccc(N(Cc2cccc(OC(F)(F)C(F)F)c2)CC(O)C(F)(F)F)c1` (stereo not drawn) [Example 493], the IC50 came out at 1.8 µM.
For `CC(=O)CCCCOc1cccc(N(Cc2cccc(OC(F)(F)C(F)F)c2)CC(O)C(F)(F)F)c1` (stereo not drawn) [Example 495], the IC50 was determined as 1.5 µM.
As for `COC(=O)CCCCOc1cccc(N(Cc2cccc(OC(F)(F)C(F)F)c2)CC(O)C(F)(F)F)c1` (stereo not drawn) [Example 496], the IC50 was determined as 1.2 µM.
Regarding `O=S(=O)(CCOc1cccc(N(Cc2cccc(OC(F)(F)C(F)F)c2)CC(O)C(F)(F)F)c1)c1ccccc1` (stereo not drawn) [Example 497], the IC50 worked out at 42 µM.
Consider `NC(=O)COc1cccc(N(Cc2cccc(OC(F)(F)C(F)F)c2)CC(O)C(F)(F)F)c1` (stereo not drawn) [Example 500], for which the IC50 was greater than 50 µM.
On to `N#CCCCOc1cccc(N(Cc2cccc(OC(F)(F)C(F)F)c2)CC(O)C(F)(F)F)c1` (stereo not drawn) [Example 501], for which the IC50 amounted to 3.6 µM.
For the molecule `CC(Oc1cccc(N(Cc2cccc(OC(F)(F)C(F)F)c2)CC(O)C(F)(F)F)c1)C(=O)Nc1ccccc1` (stereo not drawn) [Example 502], the IC50 is 5.7 µM.
As to `O=C(COc1cccc(N(Cc2cccc(OC(F)(F)C(F)F)c2)CC(O)C(F)(F)F)c1)c1ccccc1` (stereo not drawn) [Example 503], the IC50 was 2.1 µM.
With `COCCOc1cccc(N(Cc2cccc(OC(F)(F)C(F)F)c2)CC(O)C(F)(F)F)c1` (stereo not drawn) [Example 505], the IC50 was 1.7 µM.
As for `OC(CN(Cc1cccc(OC(F)(F)C(F)F)c1)c1cccc(OC2CCOCC2)c1)C(F)(F)F` (stereo not drawn) [Example 507], the figure is 2.3 µM; as for `CCCC(Oc1cccc(N(Cc2cccc(OC(F)(F)C(F)F)c2)CC(O)C(F)(F)F)c1)C(=O)OCC` (stereo not drawn) [Example 508], 2.1 µM; as for `CN(C)CCOc1cccc(N(Cc2cccc(OC(F)(F)C(F)F)c2)CC(O)C(F)(F)F)c1` (stereo not drawn) [Example 511], greater than 50 µM.
In the case of `CC(C)(CO)COc1cccc(N(Cc2cccc(OC(F)(F)C(F)F)c2)CC(O)C(F)(F)F)c1` (stereo not drawn) [Example 512], the IC50 was determined as 6.1 µM.
Regarding `CC(C)(C)C(=O)COc1cccc(N(Cc2cccc(OC(F)(F)C(F)F)c2)CC(O)C(F)(F)F)c1` (stereo not drawn) [Example 513], the IC50 worked out at 2.1 µM.
The value for `OC(CN(Cc1cccc(OC(F)(F)C(F)F)c1)c1cccc(Cc2cccc(C(F)(F)F)c2)c1)C(F)(F)F` (stereo not drawn) [Example 514, 3-[[[3-(1,1,2,2-tetrafluoroethoxy)phenyl]methyl][3-[[(3-trifluoromethyl)-phenyl]methyl]phenyl]amino]-1,1,1-trifluoro-2-propanol] was 0.34 µM; that for `COCc1cccc(N(Cc2cccc(OC(F)(F)C(F)F)c2)CC(O)C(F)(F)F)c1` (stereo not drawn) [Example 514C, 3-[[3(methoxymethyl)phenyl][[3-(1,1,2,2-tetrafluoroethoxy)-phenyl]methyl]amino]-1,1,1-trifluoro-2-propanol] was 6.6 µM.
Take `O=[N+]([O-])c1cccc(Cc2cccc(N(Cc3cccc(OC(F)(F)C(F)F)c3)CC(O)C(F)(F)F)c2)c1` (stereo not drawn) [Example 516]: the half-maximal inhibitory concentration (IC50) was 3 µM.
For `Cc1ccc(Cc2cccc(N(Cc3cccc(OC(F)(F)C(F)F)c3)CC(O)C(F)(F)F)c2)cc1` (stereo not drawn) [Example 517], the IC50 was found to be 1.6 µM.
Regarding `OC(CN(Cc1cccc(OC(F)(F)C(F)F)c1)c1cccc(Cc2cc(Cl)cc(Cl)c2)c1)C(F)(F)F` (stereo not drawn) [Example 518], the IC50 turned out to be 0.79 µM.
Turning to `OC(CN(Cc1cccc(OC(F)(F)C(F)F)c1)c1cccc(Cc2ccc(F)cc2)c1)C(F)(F)F` (stereo not drawn) [Example 519], the IC50 worked out at 2.5 µM.
Take `CC(C)(C)c1ccc(Cc2cccc(N(Cc3cccc(OC(F)(F)C(F)F)c3)CC(O)C(F)(F)F)c2)cc1` (stereo not drawn) [Example 520]: the IC50 amounted to 30 µM.
The value for `Cc1cc(Cc2cccc(N(Cc3cccc(OC(F)(F)C(F)F)c3)CC(O)C(F)(F)F)c2)ccc1F` (stereo not drawn) [Example 521] was 0.43 µM; that for `Cc1cc(Cc2cccc(N(Cc3cccc(OC(F)(F)C(F)F)c3)CC(O)C(F)(F)F)c2)ccc1Cl` (stereo not drawn) [Example 522] was 1.4 µM; that for `Cc1ccc(Cc2cccc(N(Cc3cccc(OC(F)(F)C(F)F)c3)CC(O)C(F)(F)F)c2)cc1C` (stereo not drawn) [Example 523] was 0.77 µM.
Consider `OC(CN(Cc1cccc(OC(F)(F)C(F)F)c1)c1cccc(Cc2ccc(F)c(Cl)c2)c1)C(F)(F)F` (stereo not drawn) [Example 524], for which the IC50 came to 1.2 µM.
For `OC(CN(Cc1cccc(OC(F)(F)C(F)F)c1)c1cccc(Cc2cccc(Cl)c2)c1)C(F)(F)F` (stereo not drawn) [Example 525], the IC50 is 0.76 µM.
`CSc1ccc(Cc2cccc(N(Cc3cccc(OC(F)(F)C(F)F)c3)CC(O)C(F)(F)F)c2)cc1` (stereo not drawn) [Example 526]: the IC50 was determined as 1.4 µM.
In the case of `COc1cccc(Cc2cccc(N(Cc3cccc(OC(F)(F)C(F)F)c3)CC(O)C(F)(F)F)c2)c1` (stereo not drawn) [Example 527], the concentration for half-maximal inhibition (IC50) was 0.58 µM.
As for `O=S(=O)(Nc1cccc(N(Cc2cccc(OC(F)(F)C(F)F)c2)CC(O)C(F)(F)F)c1)c1ccc(F)cc1` (stereo not drawn) [Example 528, 4-fluoro-N-[3-[[[3-(1,1,2,2-tetrafluoroethoxy)phenyl]methyl](3,3,3-trifluoro-2-hydroxypropyl)amino]phenyl]benzenesulfonamide], the IC50 is 43 µM.

A word on the IC50: it is the midpoint of a concentration-inhibition curve.
